Measured values published in the CheMixHub viscosity set.

Assay: xn = mol fraction of the nth substance listed

CCCCCN + CCC(=O)O
viscosity [mPa·s], 101.33 kPa
Settings | 293.15 K | 298.15 K | 298.5 K | 303.15 K | 308.15 K | 313.15 K | 318.15 K | 323.15 K
x2 = 0.1 | 1.62 | 1.53 | – | 1.42 | 1.4 | 1.32 | 1.24 | –
x2 = 0.2 | 1.97 | 1.86 | – | 1.74 | 1.69 | 1.6 | 1.51 | –
x2 = 0.3 | 13.7 | 11.78 | – | 10.12 | 8.82 | 7.77 | 6.87 | –
x2 = 0.4 | 85.81 | – | 71.98 | 56.82 | 46.99 | 39.47 | 33.6 | 28.82
x2 = 0.5 | 707.8 | 510.2 | – | 386 | 296.3 | 226.2 | 178.3 | –
x2 = 0.6 | 368.1 | 274.6 | – | 210 | 164.6 | 130.8 | 103.8 | –
x2 = 0.7 | 75.4 | 60.4 | – | 48.75 | 40.4 | 33.8 | 28.4 | –

CCOC(C)(C)C + COCCO
viscosity [mPa·s], 101 kPa
Settings | 293.15 K | 298.15 K | 303.15 K
x1 = 0.0501 | 1.598 | 1.452 | 1.327
x1 = 0.1 | 1.493 | 1.361 | 1.246
x1 = 0.1508 | 1.386 | 1.267 | 1.164
x1 = 0.2 | 1.291 | 1.183 | 1.089
x1 = 0.2512 | 1.198 | 1.1 | 1.015
x1 = 0.299 | 1.118 | 1.029 | 0.951
x1 = 0.3489 | 1.041 | 0.961 | 0.89
x1 = 0.4 | 0.971 | 0.898 | 0.834
x1 = 0.4503 | 0.909 | 0.842 | 0.784
x1 = 0.499 | 0.854 | 0.793 | 0.74
x1 = 0.55 | 0.803 | 0.748 | 0.7
x1 = 0.61 | 0.75 | 0.7 | 0.657
x1 = 0.6599 | 0.711 | 0.665 | 0.625
x1 = 0.7 | 0.682 | 0.639 | 0.602
x1 = 0.7511 | 0.649 | 0.61 | 0.575
x1 = 0.8 | 0.621 | 0.584 | 0.552
x1 = 0.8489 | 0.595 | 0.561 | 0.532
x1 = 0.9 | 0.571 | 0.54 | 0.512
x1 = 0.949 | 0.55 | 0.521 | 0.495

Cc1cccc([N+](=O)[O-])c1 + Cc1ccccc1
303.15 K, 101.33 kPa
Settings | viscosity [mPa·s]
x1 = 0.201 | 0.63
x1 = 0.406 | 0.8
x1 = 0.603 | 1
x1 = 0.8 | 1.33

CCCNCCC + CCCCCCCCCCO
viscosity [mPa·s], 101.33 kPa
Settings | x1 = 0.1006 | x1 = 0.1963 | x1 = 0.2905 | x1 = 0.3847 | x1 = 0.5117 | x1 = 0.618 | x1 = 0.7197 | x1 = 0.8159 | x1 = 0.895
303.15 K | 7.53 | 6.262 | 5.075 | 3.99 | 2.748 | 1.943 | 1.364 | 0.9795 | 0.7427
313.15 K | 5.817 | 4.775 | 3.828 | 2.993 | 2.07 | 1.486 | 1.076 | 0.7925 | 0.6095

CCNC(C)=O + O
298.16 K, 101 kPa
Settings | viscosity [mPa·s]
x2 = 0.0826 | 6.11
x2 = 0.1593 | 6.33
x2 = 0.2575 | 6.67
x2 = 0.3475 | 6.96
x2 = 0.427 | 7.14
x2 = 0.4728 | 7.18
x2 = 0.5438 | 7.12
x2 = 0.585 | 6.98
x2 = 0.7047 | 6.14
x2 = 0.7459 | 5.72

CCCNCCC + CCCCCCCCO
viscosity [mPa·s], 101.33 kPa
Settings | x1 = 0.0971 | x1 = 0.1988 | x1 = 0.2871 | x1 = 0.3825 | x1 = 0.4806 | x1 = 0.5852 | x1 = 0.6925 | x1 = 0.7882 | x1 = 0.8977
303.15 K | 5.165 | 4.21 | 3.462 | 2.752 | 2.135 | 1.61 | 1.202 | 0.9319 | 0.6909
313.15 K | 3.773 | 3.107 | 2.571 | 2.053 | 1.6 | 1.223 | 0.9264 | 0.7294 | 0.5547

CCCNCCC + CCCCO
viscosity [mPa·s]
Settings | 303.15 K | 313.15 K
101 kPa, x1 = 0.01005 | 2.225 | –
101 kPa, x1 = 0.01919 | 2.196 | –
101 kPa, x1 = 0.03366 | 2.165 | –
101 kPa, x1 = 0.0409 | 2.145 | –
101 kPa, x1 = 0.04956 | 2.121 | –
101 kPa, x1 = 0.05853 | 2.098 | –
101 kPa, x1 = 0.07021 | 2.064 | –
101 kPa, x1 = 0.07906 | 2.04 | –
101 kPa, x1 = 0.09184 | 2.006 | –
101.33 kPa, x1 = 0.0954 | 2.038 | 1.621
101.33 kPa, x1 = 0.1904 | 1.797 | 1.426
101.33 kPa, x1 = 0.2859 | 1.567 | 1.252
101.33 kPa, x1 = 0.4163 | 1.299 | 1.031
101.33 kPa, x1 = 0.5205 | 1.106 | 0.8851
101.33 kPa, x1 = 0.615 | 0.9506 | 0.7697
101.33 kPa, x1 = 0.7107 | 0.8177 | 0.6675
101.33 kPa, x1 = 0.8108 | 0.6968 | 0.5735
101.33 kPa, x1 = 0.8924 | 0.6105 | 0.5037

CC1CCCCC1 + CCCCO
303.15 K, 101.33 kPa
Settings | viscosity [mPa·s]
x1 = 0.1 | 1.825
x1 = 0.2604 | 1.383
x1 = 0.42 | 1.072
x1 = 0.5788 | 0.854
x1 = 0.7414 | 0.719
x1 = 0.9013 | 0.643
x2 = 0.0995 | 0.6691
x2 = 0.2019 | 0.7305
x2 = 0.3088 | 0.8105
x2 = 0.3988 | 0.89
x2 = 0.5011 | 0.9898
x2 = 0.5989 | 1.122
x2 = 0.6911 | 1.272
x2 = 0.7839 | 1.45
x2 = 0.9179 | 1.858

CCCC[n+]1ccn(C)c1.N#C[S-] + c1ccsc1
100 kPa
Settings | viscosity [mPa·s]
298.15 K, x1 = 0.754 | 31.95
308.15 K, x1 = 0.857 | 28.75

CC(C)O + CO
298.15 K, 101.33 kPa
Settings | viscosity [mPa·s]
x2 = 0.0893 | 1.891
x2 = 0.225 | 1.625
x2 = 0.2835 | 1.518
x2 = 0.3984 | 1.332
x2 = 0.5178 | 1.16
x2 = 0.6024 | 1.051
x2 = 0.6852 | 0.945
x2 = 0.8272 | 0.772
x2 = 0.9058 | 0.675
